We go through three compounds from ChEMBL document CHEMBL4138047, “Recent advancements in the discovery of protein-protein interaction inhibitors of replication protein A” (Medchemcomm, 2017).

As a reminder, the Kd is the equilibrium constant for the complex coming apart. What is called Papp is the rate of passage across a membrane or cell layer, normalised by area and donor concentration.

The target in data set [1] is T1, Replication protein A 70 kDa DNA-binding subunit (Homo sapiens, UniProt P27694). As to the kind of experiment: Binding affinity to RPA70 (unknown origin) by FITC-labeled probe based fluorescence polarization anisotropy. On the technique in general: Fluorescence polarisation rises when a labelled molecule tumbles more slowly, as on binding a larger partner.
Data set [2] in a line: Binding affinity to human recombinant RPA70 R41E/R43E mutant expressed in Escherichia coli BL21 using FPA by tryptophan fluorescence quenching assay.
The target of data set [3] is T1, Replication protein A 70 kDa DNA-binding subunit. In words: Binding affinity to human recombinant RPA70 expressed in Escherichia coli BL21 using FPA by tryptophan fluorescence quenching assay.
The target is the same in data set [4]. In words: Inhibition of GST-tagged X-rhodamine-labelled p53TAD2 binding to human recombinant RPA70 expressed in Escherichia coli BL21 by fluorescence anisotropy competition assay.
A short description of data set [5]: Protein binding in human plasma at 1 ug/ml after 4 hrs by LC-MS/MS method. It counts as ADME, cell-free. Particulars: read-out: PPB (converted).
Data set [6] can be described thus: Apparent permeability in human Caco2 cells at 5 uM incubated for 120 mins by LC-MS/MS method. In kind it is ADME, cell-based. Conditions: Caco-2. (In general: Caco-2 cells form a polarised layer with tight junctions and transporters.)

T1 sequence (P27694 whole entry): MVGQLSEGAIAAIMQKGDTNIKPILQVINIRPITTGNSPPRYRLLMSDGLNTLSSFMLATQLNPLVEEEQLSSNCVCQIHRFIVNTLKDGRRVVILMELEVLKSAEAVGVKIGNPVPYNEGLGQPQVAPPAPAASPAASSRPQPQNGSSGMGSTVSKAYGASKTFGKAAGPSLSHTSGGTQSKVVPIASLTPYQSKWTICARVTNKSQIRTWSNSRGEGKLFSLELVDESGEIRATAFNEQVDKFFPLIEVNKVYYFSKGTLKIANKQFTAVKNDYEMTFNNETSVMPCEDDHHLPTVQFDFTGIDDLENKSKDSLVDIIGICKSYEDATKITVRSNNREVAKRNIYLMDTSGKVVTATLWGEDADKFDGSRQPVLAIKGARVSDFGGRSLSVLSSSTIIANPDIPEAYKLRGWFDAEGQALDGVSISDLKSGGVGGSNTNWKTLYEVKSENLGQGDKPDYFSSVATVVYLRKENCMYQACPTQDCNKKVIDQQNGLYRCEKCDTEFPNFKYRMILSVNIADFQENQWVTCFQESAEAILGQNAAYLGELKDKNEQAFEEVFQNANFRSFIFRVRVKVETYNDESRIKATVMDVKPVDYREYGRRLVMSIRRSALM

For the compound `Cc1ccc(C(=O)Nc2ccccc2C(=O)O)cc1S(=O)(=O)Nc1ccc(Br)cc1`, the affinity in data set [1], expressed as Kd, was 30 µM.
In the case of `CC(C)C1=C[C@@]23CC[C@@H]4[C@](C)(CCC[C@@]4(C)C(=O)O)[C@H]2C[C@@H]1[C@@H](C(=O)O)[C@@H]3C(=O)O`, the Kd in data set [2] worked out at 230 µM; in data set [3] it was 29 µM; in data set [4], 9 µM.
Turning to `Cc1ccc(C(=O)Nc2cc(Br)ccc2C(=O)O)cc1S(=O)(=O)Nc1ccc(Cl)c(Cl)c1`, the fraction unbound at 4 h, 1 ug/ml in data set [5] was 0.002. In data set [1], this compound came in with a Kd of 0.81 µM. Besides, the Papp at 2 h, 5 µM in data set [6] was determined as 29.2 ×10⁻⁶ cm/s.
